From US20040063694A1, “Compound useful for the treatment of CNS disorders” (priority 2002, published 2004)

Tests used:
[1] = solubility in aqueous systems; type: physicochemical
From the text: It is known that rate of dissolution of drug particles can be increased by increasing the surface area of the solid, i.e., decreasing the particle size. Consequently, methods of making finely divided drugs have been studied and efforts have been made to control the size and size range of drug particles in pharmaceutical compositions. For example, dry milling techniques have been used to reduce particle size and thereby influence drug absorption. However, in conventional dry milling, as discussed by Lachman et al., The Theory and Practice of Industrial Pharmacy, Chapter 2, “Milling”, p. 45 (1986), the limit of fineness is reached in the region of about 100 µm (=100,000 nm), where the milled material begins to cake onto the surfaces of the milling chamber. Lachman et al. note that wet grinding is beneficial in further reducing particle size, but that flocculation restricts the lower particle size limit to approximately 10 µm (=10,000 nm). Commercial airjet milling techniques have provided particles ranging in average particle size from as low as about 1 µm to 50 µm (=1,000 nm to 50,000 nm). It is […], however, that the 2-ethyl homolog of this invention is advantageously milled according to the above processes to make the compound having an average particle size of between about 1-200 micrometers. The preferred average particle size is less than 200 micrometers.

5HT-2 receptors = experiment: activity at 5HT-2 receptors
From the text: (§1) The compound of the invention in all its forms is useful in the treatment of various central nervous system (CNS) disorders or conditions. The compound has been tested using standard behavioral models predictive of antipsychotic activity. These tests include the tests conducted in published papers mentioned above including the rat conditioned avoidance test, the rat catalepsy test and other tests including binding assays to central nervous system receptors including D-1 and D-2 dopamine receptors.

5HT-1 receptors = experiment: activity at 5HT-1 receptors
From the text: as §1

[2] = twenty-six week dog study, total cholesterol; conditions: female beagle dogs
Method: The dogs are studied over a course of 8 mgs/kg/day per drug for a twenty-six week period and assessed at varying time points for LDL, HDL and total cholesterol as well as having their estrous cycle monitored and measured. […] The preferred normal range in human patients of cholesterol level (total) is described in the Merck Manual as 120-220 mg/Dl.

[3] = twenty-six week dog study, blood glucose levels; conditions: female beagle dogs
Method: In addition to total cholesterol values other parameters were measured including blood glucose levels at pretest, week 13 and week 26 of the study.

[4] = 10 mg/kg, Chakabarti et al. J. Med. Chem. 1980; cited from earlier work
[5] = 16 mg/kg, Chakabarti et al. J. Med. Chem. 1980; cited from earlier work
[6] = beagle dogs; as stated in the '382 patent (alleged); cited from earlier work
[7] = previous dog study on a smaller group of animals, cholesterol; conditions: for rise in cholesterol: male or female beagle dogs, 4 mgs/kg/day

| SMILES | solubility in aqueous systems relative to olanzapine [1] | activity at the 5HT-2 receptors (5HT-2 receptors) | activity at the 5HT-1 receptors (5HT-1 receptors) | total average cholesterol values ([2]; 8 mgs/kg/day, twenty six weeks, effect of normal estrous cycle variations discounted) [mg/dL] | average total cholesterol value, spike at a single point early on in the study ([2]; oral 8 mgs/kg/day) [mgs/dL] | mean total cholesterol values after the full duration of the study ([2]; oral 8 mgs/kg/day, twenty-six weeks, n=15 per arm) [mgs/dL] | blood glucose level, week 13 ([3]; oral 8 mgs/kg/day, week 13) [mg/dL] | blood glucose level, week 26 ([3]; oral 8 mgs/kg/day, week 26) [mg/dL] | blood glucose level, pretest ([3]; pretest (before dosing)) [mg/dL] | rat conditioned avoidance test data [4] | rat catalepsy test [5] | cholesterol raising effect [6] | rise in cholesterol relative to placebo ([7]; male beagle dogs, 8 mgs/kg/day) | rise in cholesterol [7] |
| --- | --- | --- | --- | --- | --- | --- | --- | --- | --- | --- | --- | --- | --- | --- |
| CCc1cc2c(s1)Nc1ccccc1N=C2N1CCN(C)CC1 [Example 222, 2-ethyl-10-(4-methyl-1-piperazinyl)-4H-thieno[2,3-b][1,5]benzodiazepine] | slightly less soluble than olanzapine | shows activity | shows activity | ≤ 240 | 237.2 | 186.8 | 87.9 | 77.6 | 82.5 | 2 (31-50% block) | 1 | some cholesterol raising effect | no rise in cholesterol | no rise in cholesterol |
| Cc1cc2c(s1)Nc1ccccc1N=C2N1CCN(C)CC1 [olanzapine, 2-methyl-10-(4-methyl-1-piperazinyl)-4H-thieno[2,3-b][1,5]benzodiazepine, reference compound] |  |  |  |  |  |  |  |  |  |  |  |  |  | no rise in cholesterol |
